Patent publication US10738007B2, “Amide compounds as kinase inhibitors, compositions and methods of treatment” (TRANSLATIONAL DRUG DEVELOPMENT, LLC, priority 2016, dated 2020)

Key:
[1] = target: ROCK2 (Homo sapiens (Human), UniProt O75116); assay: ROCK2 kinase inhibition assay (peptide phosphorylation, LABCHIP 3000); type: biochemical; conditions: 7 μM ATP, 2.5 nM ROCK2, 3 hours at 25° C.
[2] = tested on: MV411 cell line; assay: Cell viability assay ([…]-GLO), MV411; type: cell-based; conditions: for IC50: MV411 (ITD-FLT3+), 72 hours treatment; for FLT3-ITD+ Selectivity (K562/MV411): ratio K562/MV411
Experimental: Cell viability was measured by the […] -GlO® cell viability assay from Promega (Madison, Wis.). The […] -GlO Luminescent Cell Viability Assay is a homogeneous method to determine the number of viable cells in culture based on quantitation of the ATP present, which signals the presence of metabolically active cells. Following treatment, […] -GlO® is added to treatment wells and incubated at 37° C. Luminescence values were measured at using a Molecular Devices Spectramax microplate reader.

[3] = tested on: K562 cell line; assay: Cell viability assay ([…]-GLO), K562; type: cell-based; conditions: K562 (does not express ITD-FLT3), 72 hours treatment
Experimental: Cell viability in the presence of varying concentrations of the above listed compounds at different time points was used to assess cytotoxicity and the effect of the compounds on cell proliferation.
Cell viability was measured by the […]-GlO® cell viability assay from Promega (Madison, Wis.). The […]-GlO Luminescent Cell Viability Assay is a homogeneous method to determine the number of viable cells in culture based on quantitation of the ATP present, which signals the presence of metabolically active cells. Following treatment, […]-GlO® is added to treatment wells and incubated at 37° C. Luminescence values were measured at using a Molecular Devices Spectramax microplate reader.
Cells were grown to 70% confluency, trypsinized, counted, and seeded in 96 well flat-bottom plates at a final concentration of 2.5×10^3-5×10^3 cells/well (Day 0). Cells were allowed to incubate in growth media for 24 hours. Treatment with the test agents or standard agents began on Day 1 and continued for 72 hours. At the 72-hour time point, treatment containing media was removed. Viable cell numbers were quantified by the […]-GLO® cell viability assay as described above. Results from these studies were used to calculate an IC50 value (concentration of drug that inhibits cell growth by 50 percent of control) for each compound.
For single agent and combination studies, data from each experiment was collected and expressed as % Cell Growth using the following calculation: % Cell Growth=(ftest/fvehicle)×100
Where ftest is the luminescence of the tested sample, and fvehicle is the luminescence of the vehicle in which the drug is dissolved. Dose response graphs and IC50 values were generated using Prism 6 software (GraphPad) using the following equation: Y=(Top−Bottom)/(1+10^((logIC50-X)−HillSlope))
Where X is the logarithm of the concentration and Y is the response. Y starts at the Bottom and goes to the Top with a sigmoid shape.
The experiments also evaluated the selectivity of the compounds for inhibiting growth of cancer cells carrying a mutation in the Flt3 gene. The MV411 cell line expresses the mutant allele of Flt3 with internal tandem duplications (ITD) of the gene. See Quentmeier et al., “FLT3 Mutations in Acute Myeloid Leukemia Cell Lines,” Leukemia 17(1), 2003, 120-124. […] See Grafone et al., “Monitoring of FLT3 Phosphorylation Status and Its Response to Drugs By Flow Cytometry in AML Blast Cells,” Hematol Oncol. 26(3), 2008, 159-166.

ROCK2, sequence (O75116 whole entry, species assumed): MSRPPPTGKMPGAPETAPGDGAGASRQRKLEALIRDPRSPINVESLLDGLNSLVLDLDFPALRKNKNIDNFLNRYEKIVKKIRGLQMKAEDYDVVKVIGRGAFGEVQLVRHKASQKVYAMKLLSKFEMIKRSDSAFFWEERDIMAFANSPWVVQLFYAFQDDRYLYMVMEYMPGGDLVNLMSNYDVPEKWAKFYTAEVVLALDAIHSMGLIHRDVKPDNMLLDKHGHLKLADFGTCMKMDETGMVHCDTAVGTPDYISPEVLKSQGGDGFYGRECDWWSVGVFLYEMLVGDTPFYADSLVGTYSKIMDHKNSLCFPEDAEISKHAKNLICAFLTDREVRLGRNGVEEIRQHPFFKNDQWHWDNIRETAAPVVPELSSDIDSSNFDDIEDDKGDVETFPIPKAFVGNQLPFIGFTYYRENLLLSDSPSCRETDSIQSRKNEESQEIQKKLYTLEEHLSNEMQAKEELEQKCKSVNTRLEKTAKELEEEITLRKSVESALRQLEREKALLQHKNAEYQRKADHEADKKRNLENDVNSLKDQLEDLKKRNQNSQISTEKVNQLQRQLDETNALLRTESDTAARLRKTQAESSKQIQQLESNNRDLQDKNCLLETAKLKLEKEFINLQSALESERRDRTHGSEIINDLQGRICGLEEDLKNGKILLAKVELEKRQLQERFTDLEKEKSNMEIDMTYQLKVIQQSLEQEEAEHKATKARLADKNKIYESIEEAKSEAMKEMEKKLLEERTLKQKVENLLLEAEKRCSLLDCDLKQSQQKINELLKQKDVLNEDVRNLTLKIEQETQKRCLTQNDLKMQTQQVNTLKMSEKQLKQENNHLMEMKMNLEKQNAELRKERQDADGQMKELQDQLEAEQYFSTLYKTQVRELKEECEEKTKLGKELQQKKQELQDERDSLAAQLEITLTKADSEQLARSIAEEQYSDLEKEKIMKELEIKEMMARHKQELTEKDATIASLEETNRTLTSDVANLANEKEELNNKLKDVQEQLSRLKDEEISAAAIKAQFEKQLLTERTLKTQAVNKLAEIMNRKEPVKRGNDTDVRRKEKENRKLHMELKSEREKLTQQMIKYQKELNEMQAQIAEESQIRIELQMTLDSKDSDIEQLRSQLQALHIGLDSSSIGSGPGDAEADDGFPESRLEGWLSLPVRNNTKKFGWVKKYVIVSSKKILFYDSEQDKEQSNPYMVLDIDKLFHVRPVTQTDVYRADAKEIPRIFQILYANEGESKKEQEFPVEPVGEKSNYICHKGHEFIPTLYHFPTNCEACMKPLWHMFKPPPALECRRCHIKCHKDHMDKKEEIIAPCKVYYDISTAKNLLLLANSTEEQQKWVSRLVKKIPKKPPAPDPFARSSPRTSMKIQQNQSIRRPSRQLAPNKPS

| Compound | IC50 [1] | IC50 ([2]; Homo sapiens, MV4-11) | FLT3-ITD+ Selectivity (K562/MV411) [2] | IC50 ([3]; Homo sapiens) | IC50 [2] | IC50 [3] |
| --- | --- | --- | --- | --- | --- | --- |
| CC(C)N1CCC(NC(=O)c2cccc([C@@H](CO)NC(=O)c3ccc(-c4ccncc4)cc3)c2)CC1 [Compound 55] | 0.47 nM | 120 nM | >842 | > 100000 nM |  |  |
| O=C(NC1CCCC1)c1cccc([C@@H](CO)NC(=O)c2cc(-c3ccncc3)n[nH]2)c1 [Compound 61] | 2.12 nM | 2500 nM | >40 | > 100000 nM |  |  |
| Cc1cc(-c2cn[nH]c2)ccc1C(=O)N[C@H](CO)c1cccc(C(=O)NC2CCCC2)c1 [Compound 96] | 53.1 nM | 710 nM | 142 | 101000 nM |  |  |
| CN(C)CCc1ccc(NC(=O)c2cccc([C@@H](CO)NC(=O)c3ccc(-c4ccncc4)cc3)c2)cc1 [Compound 20] | 1.2 nM | 10 nM | 1585 | 16000 nM |  |  |
| C[C@@H](NC(=O)c1ccc(-c2ccncc2)cc1)c1cccc(C(=O)NCc2ccc(CN(C)C)cc2)c1 [Compound 39] | 0.3 nM | 10 nM | 940 | 9400 nM |  |  |
| O=C(NC1CCC1)c1cccc([C@@H](CO)NC(=O)c2ccc(-c3ccncc3)cc2)c1 [Compound 48] | 1.01 nM | 440 nM | >230 | > 100000 nM |  |  |
| COc1ccc(NC(=O)c2cccc([C@@H](CO)NC(=O)c3ccc(-c4ccncc4)cc3)c2)cn1 [Compound 93] | 0.51 nM | 90 nM | 935 | 85000 nM |  |  |
| COc1ccc(C(=O)N[C@H](C)c2cccc(C(=O)Nc3nc4c(s3)CN(C)CC4)c2)cc1C [Compound 17] | 22.5 nM | 13500 nM | >7 | > 100000 nM |  |  |
| COc1cc(-c2ccncc2)ccc1C(=O)N[C@H](CO)c1cccc(C(=O)NC2CCCC2)c1 [Compound 110] | 2.5 nM | 410 nM | 246 | > 100000 nM |  |  |
| COc1cccc(CNC(=O)c2cccc([C@@H](CO)NC(=O)c3ccc(-c4ccncc4)cc3)c2)c1 [Compound 65] | 0.6 nM | 70 nM | 393 | 28000 nM |  |  |
| COC(=O)N1CCC(NC(=O)c2cccc([C@@H](CO)NC(=O)c3ccc(-c4ccncc4)cc3)c2)CC1 [Compound 90] | 0.64 nM |  | >5050 |  | 20 nM | > 100000 nM |
| O=C(NCC1CCOCC1)c1cccc([C@@H](CO)NC(=O)c2ccc(-c3ccncc3)cc2)c1 [Compound 22] | 0.57 nM | 3800 nM | >27 | > 100000 nM |  |  |
| CN(C)C1CCC(NC(=O)c2cccc([C@@H](CO)NC(=O)c3ccc(-c4ccncc4)cc3)c2)CC1 (some centres unmarked) [Compound 52] | 0.61 nM | 120 nM | >842 | > 100000 nM |  |  |
| C[C@@H](NC(=O)c1ccc(-c2ccncc2)cc1)c1cccc(C(=O)NCC2CCN(C)CC2)c1 [Compound 49] | 0.3 nM | 20 nM | >5050 | > 100000 nM |  |  |
| CC(C)N1CCC(CNC(=O)c2cccc([C@@H](CO)NC(=O)c3ccc(-c4ccncc4)cc3)c2)CC1 [Compound 56] | 0.31 nM | 90 nM | >1122 | > 100000 nM |  |  |
| O=C(NCc1cccc(F)c1)c1cccc([C@@H](CO)NC(=O)c2ccc(-c3ccncc3)cc2)c1 [Compound 75] | 0.5 nM | 160 nM | 207 | 33000 nM |  |  |

| Compound | IC50 [1] | IC50 ([2]; Homo sapiens, MV4-11) | FLT3-ITD+ Selectivity (K562/MV411) [2] | IC50 ([3]; Homo sapiens) | IC50 [2] | IC50 [3] |
| --- | --- | --- | --- | --- | --- | --- |
| CN1CCC(CNC(=O)c2cccc([C@@H](CO)NC(=O)c3ccc(-c4ccncc4)cc3)c2)CC1 [Compound 23] | 0.3 nM | 90 nM | 632 | 56000 nM |  |  |
| CN1CCC(NC(=O)c2cccc([C@@H](CO)NC(=O)c3ccc(-c4ccncc4)cc3)c2)CC1 [Compound 50] | 0.33 nM | 100 nM | >1010 | > 100000 nM |  |  |
| O=C(NCc1ccccc1)c1cccc([C@@H](CO)NC(=O)c2ccc(-c3ccncc3)cc2)c1 [Compound 13] | 1.7 nM | 3000 nM | 9 | 27000 nM |  |  |
| CC(NC(=O)c1ccc(-c2ccncc2)cc1)c1cccc(OCC(=O)Nc2ccc3c(c2)CN(C)CC3)c1 (centres unmarked) [Compound 16] | 3.6 nM | 1500 nM | 20 | 30000 nM |  |  |
| CN(C)Cc1ccc(CNC(=O)c2cccc([C@@H](CO)NC(=O)c3ccc(-c4ccncc4)cn3)c2)cc1 [Compound 47] | 0.54 nM | 100 nM | 360 | 36000 nM |  |  |
| O=C(NC1CCC(F)(F)CC1)c1cccc([C@@H](CO)NC(=O)c2ccc(-c3ccncc3)cc2)c1 [Compound 53] | 0.66 nM | 220 nM | >459 | > 100000 nM |  |  |
| CCN1CCC(CNC(=O)c2cccc([C@@H](CO)NC(=O)c3ccc(-c4ccncc4)cc3)c2)CC1 [Compound 59] | 0.46 nM | 280 nM | >361 | > 100000 nM |  |  |
| O=C(NCC1CC1)c1cccc([C@@H](CO)NC(=O)c2ccc(-c3ccncc3)cc2)c1 [Compound 84] | 1.2 nM | 270 nM | 123 | 33000 nM |  |  |
| CC(NC(=O)c1ccc(-c2ccncc2)cc1)c1cccc(OCC(=O)NC2CC2)c1 (centres unmarked) [Compound 15] | 9 nM | 4000 nM | >25 | > 100000 nM |  |  |
| O=C(NC1CCCC1)c1cccc([C@@H](CO)NC(=O)c2ccc(-c3ccncc3)cn2)c1 [Compound 51] | 4.38 nM | 1450 nM | >70 | > 100000 nM |  |  |
| COc1ccc(C(=O)N[C@H](CO)c2cccc(C(=O)Nc3nc4c(s3)CN(C)CC4)c2)cc1C [Compound 18] | 19.6 nM | 15900 nM | >6 | > 100000 nM |  |  |
| Cc1cc(-c2ccncc2)ccc1C(=O)N[C@H](CO)c1cccc(C(=O)NC2CCCC2)c1 [Compound 88] | 7.5 nM | 8500 nM | >12 | > 100000 nM |  |  |
| COCC1(NC(=O)c2cccc([C@@H](CO)NC(=O)c3ccc(-c4ccncc4)cc3)c2)CCCC1 [Compound 67] | 9.1 nM | 2670 nM | 15 | 41000 nM |  |  |
| CN1CCC(C)(CNC(=O)c2cccc([C@@H](CO)NC(=O)c3ccc(-c4ccncc4)cc3)c2)CC1 [Compound 57] | 0.63 nM | 90 nM | >1122 | > 100000 nM |  |  |
| CN(C)Cc1cccc(NC(=O)c2cccc([C@@H](CO)NC(=O)c3ccc(-c4ccncc4)cc3)c2)c1 [Compound 14] | 1.6 nM | 90 nM | 532 | 48000 nM |  |  |
| O=C(NC1CCCC1)c1cccc([C@@H](CO)NC(=O)c2ccc(-c3ccncc3)cc2F)c1 [Compound 86] | 2.7 nM | 1700 nM | >58 | > 100000 nM |  |  |
